Source: patent US4410537A, “Pharmaceutical ethers” (Burroughts Wellcome Co., priority 1979, dated 1983)

Columns and labels:
[1] = tested on: haemoglobin; test: Effect on the oxygen-dissociation curve of whole rat blood in vivo; details: for Mean p50: 1 hour, rat
Method: (§1) Compound (Ia) was dissolved in isotonic saline containing sodium bicarbonate 25 mM. […] The mixtures were incubated (30 mins, 37° C.) and the oxygen-dissociation curve for each then measured using a whole-blood spectrophotometer (Hem-O-Scan, Trade Name).
Female albino rats (100-120 g) were fasted for 24 hrs with water available ad lib. Compound (Ia) was dissolved in isotonic saline containing sodium bicarbonate 25 mM and administered to two rats orally (500 mg/kg) and to two rats intravenously (100 mg/kg): appropriate vehicle controls were administered simultaneously to control animals. After 1 hour all animals were exsanguinated via the abdominal aorta under chloroform anaesthesia: 2.5 ml of blood from each was mixed with disodium edetate (anticoagulant) and the oxygen-dissociation curve of each sample measured as in (A).

[2] = tested on: whole homozygous human sickle-cell blood; test: Effect on sickling in vitro of whole homozygous human sickle-cell blood; assay type: cell-based; details: 3.0 mM, 60 mins, oxygen tension about 28 mm Hg; about 50% sickled at start; controls nearly 70%
[3] = tested on: haemoglobin; test: Effect on the oxygen-dissociation curve of whole rat blood in vitro; assay type: cell-based
Method: as §1
Blood (6.5 ml) from an adult albino rat, exsanguinated via the abdominal aorta under ether anaesthesia, was mixed with acid-citratedextrose anticoagulant (1.5 ml). […] Both samples were incubated (30 mins, 37° C.) and the oxygen-dissociation curve of each measured as in (A).

[4] = tested on: haemoglobin; test: Effect on the oxygen-dissociation curve of whole normal human blood in vitro; assay type: cell-based; details: for Mean p50: normal human blood, 30 mins, 37° C., control 26.0
Method: as §1

[5] = tested on: anaesthetized rats; test: Cardiovascular effects in anaesthetized rats; assay type: in vivo, rat
Method: Male Wistar rats weighing between 250-350 g were used. Anaesthesia was induced with 3-5% halothane in oxygen and maintained with a mixture of chloralose (60 mg/kg i.v.) and pentobarbitone (20 mg/kg i.v.). A femoral vein was cannulated for the administration of drugs and the ipsilateral femoral artery for measuring arterial blood pressure; heart rate was derived from the femoral pulse by a cardiotachometer. Body temperature was maintained at 38° C.
Five test rats were each given a series of increasing doses of compound (Ia) as a solution in 10%-saturated sodium bicarbonate (saturated sodium bicarbonate solution diluted 1:9). Sufficient time was allowed between doses for the variables to return either to the pre-dose level or to a steady state if full recovery was not attained. Measurements were made 2 mins. after dose or at maximum effect.
Control rats (3) were given a series of 0.2 ml. injections of the sodium bicarbonate vehicle (up to 15 injections) to assess any effect of sodium bicarbonate and of increasing extracellular fluid volume on blood pressure and heart rate.

[6] = Acute oral toxicity in mice; details: mouse, in vivo, solution in sodium bicarbonate-saline
[7] = tested on: haemoglobin; test: Effect on the oxygen-dissociation curve of whole homozygous human sickle-cell blood in vitro; assay type: cell-based
Method: Compound (Ia) was dissolved in isotonic saline containing sodium bicarbonate 25 mM. […]
Homozygous human sickle-cell blood (4 vols) was mixed with acid-citrate-dextrose anticoagulant (1 vol) and a portion of the mixture set aside as a control.

For `O=Cc1c(O)cccc1OCCCCC(=O)O` [Example 1, 5-(2-formyl-3-hydroxyphenoxy)pentanoic acid], the “Mean p50” value ([1]; 100 mg/kg i.v., vehicle 43.37) was 22.37 mm. Hg, the “Mean p50” value ([1]; 500 mg/kg p.o., vehicle 42.75) was 10.25 mm. Hg and the “displacement of the oxygen-dissociation curve” value (“displacement” below) ([1]; whole rat blood in vivo) was “considerable left-displacement”. The “proportion of sickled cells” value [2] was “about 3%”, the “Mean p50” value ([3]; 3.0 mM, rat blood in vitro, 30 mins, 37° C., control 44.5) was 8.2 mm. Hg and the “displacement” value ([3]; whole rat blood in vitro) was “considerably left-displaced”. For the same compound, the “Mean p50” value ([4]; 0.3 mM) was 25.5 mm. Hg, the “Mean p50” value ([4]; 1.0 mM) was 21.5 mm. Hg and the “Mean p50” value ([4]; 3.0 mM) was 9.0 mm. Hg. The “displacement” value ([4]; whole normal human blood in vitro) was “dose-related left-displacement”, the “change in blood pressure” value ([5]; 32-128 mg/kg i.v., anaesthetized rats) was “Significant dose-dependent falls in pressure” and the “change in heart rate” value ([5]; after the 64 mg/kg dose, three rats, not statistically significant) was “slight tachycardia”. The “change in heart rate” value ([5]; anaesthetized rats, i.v.) was “no marked changes in heart rate”, the “time of blood pressure recovery after each dose” value ([5]; anaesthetized rats, i.v.) was at most 15 min and the “change in systolic, diastolic or mean blood pressures” value ([5]; up to 16 mg/kg i.v., anaesthetized rats) was “no appreciable change”. The LD50 [6] was about 1000 mg/kg, the “Mean p50” value ([7]; 3.0 mM, homozygous sickle-cell blood, 37° C., minimum 45 mins, three patients, control 51) was 10 mm. Hg and the “displacement” value ([7]; whole homozygous (SS genotype) human sickle-cell blood in vitro) was “considerable left-displacement”.
